Reference: publication PMC3134859, “Chemical Stability of New Acyclovir Analogues with Peptidomimetics” (Scientia Pharmaceutica, 2011)
Several values for one entry are separate records, joined by “and”; a condition that tells them apart may be missing. Equal entries are not always repeated. Where two headings read alike, the source gives them in different places.

Key:
[1] = cited from earlier work
[2] = cited from earlier work; remark: listed apart in the source
[3] = Chemical stability (hydrolysis) of acyclovir esters in aqueous buffer, unchanged ester quantified by HPLC; type: physicochemical; details: for pH=1, t½, h: pH 1.0 (0.1 M HCl); for pH=1, t½, h / pH=7.4, t½, h: 37°C, decomposition half-life; for chemical stability at pH 1 (in words): pH 1.0, 37°C, acidic conditions; for pH=7.4, t½, h: pH 7.4 (phosphate buffer); for chemical stability at pH 7.4 (in words): pH 7.4, 37°C
Protocol: It was established that, under the described experimental conditions, some esters underwent decomposition by hydrolysis. The hydrolysis followed apparent first order kinetics, and the rate constants (K) were obtained as slopes from the semi-logarithmic plots of the unchanged ester concentration versus time. The chemical stability was assessed by means of the decomposition half-lives: t1/2=ln2/K
Chromatography was carried out isocratically, on a modular KNAUER HPLC system (Germany), consisting of a Smartline Pump 1000, a Smartline Manager 5000 solvent degasser, an injector with a 20 μl loop and a Smartline UV Detector 2600 diode array. The analyses were controlled and the data were acquired with EuroChrom software. The mobile phase consisted of acetonitrile/water in a ratio of 30:70 or 50:50 v/v depending on the polarity of the compound and a flow rate 1 ml/min was used. The detection was performed at relevant λmax for the respective compound (range 252–262 nm).
A single chromatographic method was used to detect the studied acyclovir esters with thiazole rings containing amino acids (Gly, Ala, Val, Leu) in aqueous buffer solutions at pH 1.0 (0.1 M HCl) and pH 7.4 (phosphate buffer). Twenty microlitres of each sample were injected into a reverse phase HPLC C18 column. The mobile phase consisted of acetonitrile/water at a ratio of 30:70 or 50:50 v/v depending on the polarity of the compound. The analyses of the esters of acyclovir with amino acid (Gly, Ala, Val, Leu) containing thiazole rings were validated. The specificity of the method was investigated by observing potential interference between the esters of acyclovir and its parent drug, acyclovir. No interfering peaks were presented in the chromatograms. The linearity of the relationship between the peak area and concentration was determined by analysing six standard solutions in a concentration range of 0.1–1.0 mmol/l. For all analytes, the relationship between the peak area ratio of the drug to the internal standard and concentration was linear over the entire examined concentration range. The correlation coefficients of the calibration curves were greater than 0.997.
Hydrolysis of acyclovir esters with thiazole rings containing amino acids (Gly, Ala, Val, Leu) was studied at pH 1.0 (HCl) and pH 7.4 (phosphate buffered saline). Stock solutions of the prodrugs were prepared and used immediately for stability studies. Aliquots (9.8 ml) of the buffer were placed in a screw-capped vial and allowed equilibrate at 37°C. A prodrug stock solution (0.2 ml) was added to the buffer. The vial was placed in a constant shaker bath set at 37°C and 60 rpm. Each sample was directly analysed by HPLC.

HSV-2 = tested on: HSV-2; set-up: method as in PMID 19400144; details: cited from earlier work
HSV-1 = tested on: HSV-1; set-up: method as in PMID 19400144; details: cited from earlier work
[4] = cited from earlier work; remark: listed apart in the source

Compound	pH=1, t½, h [3] [h]	chemical stability at pH 1 (in words) [3]	pH=7.4, t½, h [3]	chemical stability at pH 7.4 (in words) [3]	effect against HSV-2 (HSV-2)	also measured
Nc1nc2c(ncn2COCCO)c(=O)[nH]1 [ACV, 9-[(2-hydroxyethoxy)methyl]guanine]						bioavailability by oral administration [1]: 14%; aqueous solubility [2]: low aqueous solubility
CC(C)(C)OC(=O)NCc1nc(C(=O)OCCOCn2cnc3c(=O)[nH]c(N)nc32)cs1 [compound 1, Boc-2-aminomethyl-thiazole-acyclovir]	1.1±0.1	less stable	5.9±0.5 h	lower stability		chemical stability at pH 1 (in words) ([3]; listed as Gly-thiazole): rather unstable
CC(NC(=O)OC(C)(C)C)c1nc(C(=O)OCCOCn2cnc3c(=O)[nH]c(N)nc32)cs1 (stereo not drawn) [compound 2, Boc-2-Ala-thiazole-acyclovir]	1.3±0.1	rather unstable	7.8±0.5 h	satisfying chemical stability	appreciable effect	effect against HSV-2 (HSV-2; listed as Ala-thiazolyl ester of acyclovir): prominent activity
CC(C)C(NC(=O)OC(C)(C)C)c1nc(C(=O)OCCOCn2cnc3c(=O)[nH]c(N)nc32)cs1 (stereo not drawn) [compound 3, Boc-2-Val-thiazole-acyclovir]	0.7±0.1	less stable	17 h and 17.8±0.9 h	highest chemical stability	did not exhibit a satisfying effect	chemical stability at pH 7.4 (in words) ([3]; listed as Valthiazole-acyclovir): remarkable; effect against HSV-1 (HSV-1): did not exhibit a satisfying effect
CC(C)CC(NC(=O)OC(C)(C)C)c1nc(C(=O)OCCOCn2cnc3c(=O)[nH]c(N)nc32)cs1 (stereo not drawn) [compound 4, Boc-2-Leu-thiazole-acyclovir]	2.6±0.2	rather unstable	5.0±0.4 h	lower stability		
CC(C)[C@H](N)C(=O)OCCOCn1cnc2c(=O)[nH]c(N)nc21 [valacyclovir]						t½ at pH 7.4 ([4]; pH 7.4, 37°C): 13 h; t½ at pH 7.4 ([4]; pH 7.4): 13 h; bioavailability relative to acyclovir ([1]; oral administration): four-fold higher
